The record followed here is paper PMC7434922, “Key role of quinone in the mechanism of respiratory complex I” (Nature Communications, 2020).

For test [1], the target named is T1, T. thermophilus complex I (quinone site, Q-site) (Thermus thermophilus, UniProt Q56218+Q56220+Q60019).
T1 construct: gene nqo4; native intact complex purified from T. thermophilus HB8 membranes in TDM; 16 subunits, 550 kDa; for crystals recombinant His-tagged Nqo16 (E. coli) was added; activity preparation has sub-stoichiometric Nqo16; with NADH-quinone oxidoreductase subunit 1; NADH-quinone oxidoreductase subunit 2; NADH-quinone oxidoreductase subunit 3; NADH-quinone oxidoreductase subunit 5; NADH-quinone oxidoreductase subunit 7; NADH-quinone oxidoreductase subunit 9; NADH-quinone oxidoreductase subunit 10; NADH-quinone oxidoreductase subunit 11; NADH-quinone oxidoreductase subunit 12; NADH-quinone oxidoreductase subunit 13; NADH-quinone oxidoreductase subunit 14; NADH-quinone oxidoreductase subunit 15; NADH-quinone oxidoreductase subunit 16
Briefly: X-ray crystal structure. The class given is binding. As to conditions: crystal soaked overnight in 500 uM DQ, pH 6.0; Q-site (Y87_4, H38_4).

In test [2] the target is T2, T. thermophilus complex I (NADH/FMN site, subunit Nqo1) (Thermus thermophilus, UniProt Q56222).
T2 construct: same complex as P1, native from HB8 membranes; crystals with added recombinant His-tagged Nqo16; cryo-EM samples without Nqo16 (15 subunits); with NADH-quinone oxidoreductase subunit 2; NADH-quinone oxidoreductase subunit 3; NADH-quinone oxidoreductase subunit 4; NADH-quinone oxidoreductase subunit 5; NADH-quinone oxidoreductase subunit 6; NADH-quinone oxidoreductase subunit 7; NADH-quinone oxidoreductase subunit 8; NADH-quinone oxidoreductase subunit 9; NADH-quinone oxidoreductase subunit 10; NADH-quinone oxidoreductase subunit 11; NADH-quinone oxidoreductase subunit 12; NADH-quinone oxidoreductase subunit 13; NADH-quinone oxidoreductase subunit 14; NADH-quinone oxidoreductase subunit 15; NADH-quinone oxidoreductase subunit 16
T2 sequence (Q56222 1-438): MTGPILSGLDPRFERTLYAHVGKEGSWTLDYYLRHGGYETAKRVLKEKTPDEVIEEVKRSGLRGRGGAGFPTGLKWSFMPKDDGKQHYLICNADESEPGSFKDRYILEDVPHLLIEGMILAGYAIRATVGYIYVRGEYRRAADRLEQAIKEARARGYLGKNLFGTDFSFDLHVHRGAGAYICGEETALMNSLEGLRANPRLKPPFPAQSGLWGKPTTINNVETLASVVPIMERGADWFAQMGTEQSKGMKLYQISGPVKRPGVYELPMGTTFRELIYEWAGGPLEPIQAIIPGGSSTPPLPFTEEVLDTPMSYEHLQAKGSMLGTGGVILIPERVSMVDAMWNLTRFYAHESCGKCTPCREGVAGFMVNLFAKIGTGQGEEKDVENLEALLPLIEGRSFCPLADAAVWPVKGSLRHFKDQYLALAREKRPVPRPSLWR
T2 sequence (Q56221 2-181 partner): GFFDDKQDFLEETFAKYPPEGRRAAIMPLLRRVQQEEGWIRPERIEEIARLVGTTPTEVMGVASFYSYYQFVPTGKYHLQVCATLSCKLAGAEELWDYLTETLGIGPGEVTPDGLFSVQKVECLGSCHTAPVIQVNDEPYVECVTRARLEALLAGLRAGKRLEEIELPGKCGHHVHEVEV
T2 sequence (Q56223 1-783 partner): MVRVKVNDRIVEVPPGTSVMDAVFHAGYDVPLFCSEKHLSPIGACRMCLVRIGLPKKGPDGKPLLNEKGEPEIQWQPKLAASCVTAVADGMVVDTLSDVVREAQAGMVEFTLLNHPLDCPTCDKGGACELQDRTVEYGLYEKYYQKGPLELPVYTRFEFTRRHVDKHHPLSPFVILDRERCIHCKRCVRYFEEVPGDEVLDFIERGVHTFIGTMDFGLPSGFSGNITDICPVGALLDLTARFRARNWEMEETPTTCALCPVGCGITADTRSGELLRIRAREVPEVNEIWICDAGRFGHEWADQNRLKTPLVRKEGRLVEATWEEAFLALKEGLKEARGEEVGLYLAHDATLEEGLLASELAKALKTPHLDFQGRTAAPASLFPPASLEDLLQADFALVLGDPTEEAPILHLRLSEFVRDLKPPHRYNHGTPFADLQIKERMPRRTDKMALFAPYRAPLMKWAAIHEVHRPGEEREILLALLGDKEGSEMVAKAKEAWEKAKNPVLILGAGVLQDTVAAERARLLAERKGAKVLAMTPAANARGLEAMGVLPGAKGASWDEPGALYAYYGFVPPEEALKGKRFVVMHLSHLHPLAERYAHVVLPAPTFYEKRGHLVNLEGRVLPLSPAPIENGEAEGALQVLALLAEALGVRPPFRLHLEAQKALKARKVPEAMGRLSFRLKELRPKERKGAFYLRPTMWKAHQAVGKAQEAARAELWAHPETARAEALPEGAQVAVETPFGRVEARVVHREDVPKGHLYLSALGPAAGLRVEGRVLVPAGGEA
Briefly: X-ray crystal structure. The settings on record: resident cofactor in Nqo1; same crystal. The test is classed as binding.

Test [3] has as its target T2, T. thermophilus complex I (NADH/FMN site, subunit Nqo1). Briefly: X-ray crystal structure; also cryo-EM (6ZIY). The test is classed as binding. The settings on record: crystal soaked 4.5 min in 20 mM NADH, 20 mM dithionite, anaerobic, pH 6.0.
The target in test [4] is T3, Complex I antiporter-like subunit Nqo14 (Thermus thermophilus) (T. thermophilus HB8, UniProt Q56229 1-427).
T3 construct: Nqo14, antiporter-like core subunit of the membrane domain of respiratory complex I, Thermus thermophilus HB8; Endogenous subunit inside the crystallised intact complex; source: purified from T. thermophilus HB8 cells as part of intact complex I (anion exchange, cation exchange, gel filtration)
T3 sequence (looked up): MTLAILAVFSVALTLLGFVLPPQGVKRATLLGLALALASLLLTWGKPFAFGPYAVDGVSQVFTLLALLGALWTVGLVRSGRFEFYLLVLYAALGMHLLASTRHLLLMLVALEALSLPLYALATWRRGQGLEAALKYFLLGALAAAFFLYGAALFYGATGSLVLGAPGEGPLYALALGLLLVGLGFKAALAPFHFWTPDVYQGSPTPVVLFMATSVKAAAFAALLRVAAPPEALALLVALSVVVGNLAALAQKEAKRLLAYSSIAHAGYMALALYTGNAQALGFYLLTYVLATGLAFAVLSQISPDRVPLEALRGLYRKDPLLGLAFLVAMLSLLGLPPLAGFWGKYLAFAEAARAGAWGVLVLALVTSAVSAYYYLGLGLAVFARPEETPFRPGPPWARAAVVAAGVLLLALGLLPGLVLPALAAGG
Briefly: crystal structure; intact complex I purified from T. thermophilus mixed with purified recombinant Nqo16 (1:0.2 CXI:Nqo16), sitting drop at 23 °C, 100 mM Bis-Tris pH 6.0, 19-25% PEG 4000, 100 mM KCl, 100 mM glutaric acid, detergents; native crystals and crystals soaked or co-crystallised with NADH, decylubiquinone, piericidin A, aureothin or pyridaben. The settings on record: both partners purified.

The target of test [5] is T4, Complex I subunit Nqo10 (Thermus thermophilus) (T. thermophilus HB8, UniProt Q56225 1-176).
T4 construct: Nqo10, core subunit of the membrane domain of respiratory complex I, Thermus thermophilus HB8; Endogenous subunit inside the crystallised intact complex; source: purified from T. thermophilus HB8 cells as part of intact complex I (anion exchange, cation exchange, gel filtration)
T4 sequence (looked up): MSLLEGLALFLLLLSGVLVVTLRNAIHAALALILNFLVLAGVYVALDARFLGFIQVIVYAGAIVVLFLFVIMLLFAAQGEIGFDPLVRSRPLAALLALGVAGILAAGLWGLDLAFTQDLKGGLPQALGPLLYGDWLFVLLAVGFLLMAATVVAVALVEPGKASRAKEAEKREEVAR
The description is as above. The settings on record: both partners purified.

For the molecule `CCCCCCCCCCC1=C(C)C(=O)C(OC)=C(OC)C1=O` [DQ, decylubiquinone], the X-ray crystal structure entry in test [1] is given as “DQ interacts mainly with the residues mentioned above with its hydrocarbon chain surrounded by”.

`Cc1cc2nc3c(=O)[nH]c(=O)nc-3n(C[C@H](O)[C@H](O)[C@H](O)COP(=O)(O)O)c2cc1C` [FMN, flavin-mononucleotide]: the X-ray crystal structure entry in test [2] was “The FMN is coordinated by subunit Nqo1 at the deep end”.

`NC(=O)C1=CN([C@@H]2O[C@H](COP(=O)(O)OP(=O)(O)OC[C@H]3O[C@@H](n4cnc5c(N)ncnc54)[C@H](O)[C@@H]3O)[C@@H](O)[C@H]2O)C=CC1` [NADH]: the “X-ray crystal structure; also cryo-EM (6ZIY)” value in test [3] is on record as “Our crystal structure of intact complex I with bound NADH confirms the binding mode”.

B1: Complex I subunit Nqo11 (Thermus thermophilus) (natural protein, T. thermophilus HB8, UniProt Q56226 1-95, looked up)
chain: MSYLLTSALLFALGVYGVLTRRTAILVFLSIELMLNAANLSLVGFARAYGLDGQVAALMVIAVAAAEVAVGLGLIVAIFRHRESTAVDDLSELRG
notes: Nqo11, core subunit of the membrane domain of respiratory complex I, Thermus thermophilus HB8; Endogenous subunit inside the crystallised intact complex; source: purified from T. thermophilus HB8 cells as part of intact complex I (anion exchange, cation exchange, gel filtration)
As for B1, the binding result in test [4] and in test [5] was “binds” in each case.
